Measurements as given in BindingDB's records for doi:10.1021/bi002865v (Pharmacia, 2001).
Where a SMILES comes first, the peptide text is derived from it. [ ]: non-standard residue; d: D form. sY = N[C@@H](Cc1ccc(OS(=O)(=O)O)cc1)C(=O)O; Nle = CCCC[C@H](N)C(=O)O

biological target: T1, Tyrosine-protein phosphatase non-receptor type 1 (Rattus norvegicus, UniProt P20417); experiment: PTP1B Inhibition Assay; details: pH 7.2; 22 °C
T1 sequence (P20417 whole entry): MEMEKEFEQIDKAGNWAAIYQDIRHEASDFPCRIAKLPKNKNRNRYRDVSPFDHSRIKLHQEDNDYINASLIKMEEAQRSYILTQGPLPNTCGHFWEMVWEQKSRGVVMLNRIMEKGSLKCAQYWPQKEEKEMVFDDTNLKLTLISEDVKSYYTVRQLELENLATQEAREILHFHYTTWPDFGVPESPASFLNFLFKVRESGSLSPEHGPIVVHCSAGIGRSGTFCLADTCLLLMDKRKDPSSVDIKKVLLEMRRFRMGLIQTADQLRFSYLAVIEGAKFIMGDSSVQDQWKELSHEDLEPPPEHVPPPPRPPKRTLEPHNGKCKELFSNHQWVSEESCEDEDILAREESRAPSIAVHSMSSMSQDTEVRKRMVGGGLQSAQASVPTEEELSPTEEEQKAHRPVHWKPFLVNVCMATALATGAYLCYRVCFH
Excerpt: Hydrolysis of substrate p-nitrophenyl phosphate was monitored on a 96-well microplate reader. Concentrations of PTP1B inhibitors that resulted in 50% reduction of enzyme activity (IC50) were derived by fitting reaction rates obtained in the presence and absence of compounds.

Ki	SMILES
12 µM	CCCCCNC(=O)[C@H](Cc1ccc(OC(C(=O)O)C(=O)O)cc1)NC(=O)CCC(=O)O [2-{4-[(2S)-2-(3-formamidopropanoic acid)-2-(pentylcarbamoyl)ethyl]phenoxy}propanedioic acid]
30 µM	CCCCCNC(=O)[C@H](Cc1ccc(OS(=O)(=O)O)cc1)NC(=O)CCC(=O)O [Compound II]

Second part, the compound before the results:

SMILES	Ki
CCCC[C@H](NC(=O)[C@H](Cc1ccc(OS(=O)(=O)O)cc1)NC(=O)[C@H](CC(=O)O)NC(C)=O)C(N)=O (Ac-Asp-[sY]-[Nle]-NH2)	5 µM
CCCCCNC(=O)[C@H](Cc1ccc(OCC(=O)O)c(C(=O)O)c1)NC(=O)CCC(=O)O [2-(carboxymethoxy)-5-[(2S)-2-(3-formamidopropanoic acid)-2-(pentylcarbamoyl)ethyl]benzoic acid]	2.8 µM
CCCCCNC(=O)[C@H](Cc1ccc(OCC(=O)O)c(C(=O)O)c1)NC(=O)[C@H](Cc1ccccc1)NC(=O)Cn1[nH]ncc1=S [2-(carboxymethoxy)-5-[(2S)-2-(pentylcarbamoyl)-2-[(2S)-3-phenyl-2-[1-(5-sulfanyl-1H-1,2,3-triazol-1-yl)acetamido]propanamido]ethyl]benzoic acid]	0.12 µM
CCCCCNC(=O)[C@H](Cc1ccc(OC(C(=O)O)C(=O)O)cc1)NC(=O)[C@H](Cc1ccccc1)NC(=O)CCC(=O)O [2-{4-[(2S)-2-[(2S)-2-(3-formamidopropanoic acid)-3-phenylpropanamido]-2-(pentylcarbamoyl)ethyl]phenoxy}propanedioic acid]	1.2 µM
CCCCCNC(=O)[C@H](Cc1ccc(OCC(=O)OC)c(C(=O)OC)c1)NC(=O)[C@H](Cc1ccccc1)NC(=O)CCC(=O)OC [methyl 2-(2-methoxy-2-oxoethoxy)-5-[(2S)-2-[(2S)-2-(methyl 3-formamidopropanoate)-3-phenylpropanamido]-2-(pentylcarbamoyl)ethyl]benzoate]	> 100 µM
